Key:
HO1 protein = HO1 protein induction in RAW 264.7 cells (Western blot); assay type: cell-based; parameters: key to Intensity of Bands of HO1 Protein: those showing no bands are indicated by “−,”; the intensities of the bands are indicated by +−, +, ++ in the ascending order of the intensities of the bands; the intensities of the bands are indicated by +−, +, ++ in the ascending order of the intensities of the bands; the intensities of the bands are indicated by +−, +, ++ in the ascending order of the intensities of the bands; conditions: 15 hours
Procedure: RAW 264.7 cells (ATCC TIB 71) were suspended in a Dulbecco's modified Eagle's medium (manufactured by Bio Whittaker; 12-604F) containing 10% fetal bovine serum (manufactured by Gibco), so as to have a concentration of 3×10^5 cells/ml. The cell suspension was added to each well of a 6-well microtiter plate in a volume of 5 ml each. The cells were cultured at 37° C. in the presence of 5% CO2 gas overnight. To each well was added 50 μl of 4 mM, 2 mM or 1 mM DGE aqueous solution (each of final concentrations: 40 μM, 20 μM or 10 μM), and the cells were cultured for 15 hours. […] The cells were harvested by peeling off the cells from the plate with a scraper. The harvested cells were suspended in 0.1 M Tris-HCl buffer (pH 7.5) containing 0.05 mM pepstatin (manufactured by Sigma, P5318), 0.2 mM leupeptin (manufactured by Sigma, L2884), 1 mM phenylmethylsulfonyl fluoride (manufactured by nakalai tesque, 273-27), 10 mM disodium dihydrogenethylenediaminetetraacetate and 0.1% Triton X-100, and subjected to freezing and thawing once. Thereafter, the supernatant obtained by centrifugation was used as a protein fraction. The protein content in the protein fraction was assayed by Micro BCA Protein Assay Reagent (one manufactured by Pierce sold by Takara Shuzo Co., Ltd., P7411). Each of the resulting protein fraction samples was mixed with an equal volume of 0.125 M Tris-HCl buffer (pH 6.8) containing 4% sodium lauryl sulfate (SDS), 2% 2-mercaptoethanol,
0.001% Bromophenol Blue and 20% glycerol, and the mixture was treated at 100° C. for 5 minutes. A mixture containing a protein in an amount of 10 μg or so was loaded on 12.5% SDS-polyacrylamide gel, and electrophoresed with a constant current of 20 mA. In a blotting buffer containing 48 mM Tris, 39 mM glycine, 20% methanol, 0.0375% SDS, the gel after the electrophoresis was transferred to a PDVF membrane (manufactured by Millipore Corporation, IPVHOOO 10) in accordance with the attached protocol, using transblot SD cell semi-drive blotting device (manufactured by BioRad), at a constant voltage of 15 V for 25 minutes. The transferred PVDF membrane was blocked overnight in a Block Ace (manufactured by DAINIPPON PHARMACEUTICAL CO., LTD., UK-B25) solution at 4° C. The blocked membrane was washed for 15 minutes thrice with phosphate-buffered physiological saline containing 0.1% Tween 20 under gentle shaking. Thereafter, the membrane was subjected to the reaction under gentle shaking in phosphate-buffered physiological saline containing 10% Block Ace with a 200 ng/ml anti-HOl antibody (N-19, manufactured by Santa Cruz, sc-7696) and 0.1% Tween 20 at room temperature for 1 hour, and was washed for 15 minutes thrice with phosphate-buffered physiological saline containing 0.1% Tween 20 under gentle shaking. Next, the membrane was subjected to the reaction under gentle shaking in phosphate-buffered physiological saline with 10% Block Ace with 0.1% peroxidase-conjugated rabbit anti-goat IgG (H+L) antibody (manufactured by Zymed, 61-1620) and 0.1% Tween 20 at room temperature for 1 hour, and was washed for 15 minutes five times with phosphate-buffered physiological saline containing 0.1% Tween 20 under gentle shaking. Subsequently, a PVDF membrane was stained by using Western blot Chemiluminescence Reagent Plus (one manufactured by NEN Life Science Products sold by Daiichikagaku, NEL103) in accordance with the attached protocol, and sensitized on an X-ray film (manufactured by Kodak, CAT 1651454). The sensitized film was developed with FPM800 (manufactured by Fuji Photo Film Co., Ltd.).
As a result, there could be confirmed a band ascribed to HO1 protein in the group with addition of DGE. […] In the table, + symbols were given in accordance with the intensity of the band for HO1 protein. In other words, in Table 3, those showing no bands are indicated by “−,” and the intensities of the bands are indicated by +−, +, ++ in the ascending order of the intensities of the bands.

interleukin-6 (IL-6) = assay: TPA-induced IL-6 production in peritoneal macrophage (ELISA); assay type: cell-based; conditions: mouse peritoneal macrophage, final concentrations 20 μM and 10 μM, 14 hours, IL-6 in culture supernatant by ELISA
Procedure: Four milliliters of a 10% fetal bovine serum-containing RPMI 1640 medium (manufactured by Bio Whittaker, 12-702F) was intraperitoneally injected to ddy mouse (Nippon SLC, female, 7-weeks old), and the mouse was well massaged, and the medium was taken out to obtain peritoneal cells. The peritoneal cells were suspended in the 10% fetal bovine serum-containing RPMI 1640 medium so as to have a concentration of 10^6 cells/ml, and dispensed into 48-well microtiter plate in a volume of 500 μl each. The peritoneal cells were cultured at 37° C. for 2 hours in the presence of 5% CO2 gas. Thereafter, the culture supernatant was removed to give adherent cells to be used as peritoneal macrophage. To each well was freshly dispensed a Dulbecco's modified Eagle's medium (manufactured by Bio Whittaker; 12-917F) without phenol red containing 10% fetal bovine serum and 2 mM L-glutamine in a volume of 500 μl. […] The content of interleukin-6 (IL-6) in the culture supernatant was assayed by enzyme immuno-sandwich assay (ELISA: Matched antibody Pair SamplePak mouse IL-6, manufactured by Endogen). Here, the group with no addition of DGE and TPA aqueous solution (control) was set as a negative control, and the group with addition of TPA aqueous solution alone (control+TPA) was set as a positive control. In addition, all of the assays were carried out twice.

Q: How did the “induction action for HO production (band ascribed to HO1 protein)” value (HO1 protein; DGE at 10 to 40 μM) turn out when `O=C1C=CC(CO)OC1O` [DGE, L-glycero-1,5-epoxy-1αβ,6-dihydroxy-cis-hex-3-en-2-one] was run?
A: DGE concentration-dependent

Q: And the “Intensity of Bands of HO1 Protein” value (HO1 protein; final concentration 10 μM)?
A: +−

Q: And the “Intensity of Bands of HO1 Protein” value (HO1 protein; final concentration 20 μM)?
A: +

Q: What about the “Intensity of Bands of HO1 Protein” value (HO1 protein; final concentration 40 μM) of the same molecule?
A: ++

Q: And the “inhibition of TPA-induced IL-6 production” value (interleukin-6 (IL-6))?
A: inhibition of TPA-induced IL-6 production was found DGE-concentration dependently
